Experimental data taken from US20190110476A1, “NOVEL ISOTHIAZOLAMIDES, PROCESSES FOR THEIR PREPARATION AND THEIR USE AS FUNGICIDES” (priority 2014, published 2019).
Marks after values point to notes of the source that are not given here.

Assay: Measurement of LogP values by HPLC on reversed phase columns (EEC directive 79/831 Annex V.A8)
Format: physicochemical
Procedure, shortened: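 LogP measured by reversed-phase HPLC following EEC directive 79/831 Annex V.A8. Lambda-max taken from UV spectra at 200–400 nm at chromatographic peak maxima; diastereoisomer values listed separately.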

Row | Compound | LogP [a] | LogP | LogP [b]
1 | O=C(NCc1ccccc1F)c1snc(N(S(=O)(=O)c2ccccc2)S(=O)(=O)c2ccccc2)c1Cl [II-012] | 4.15^[a] |  | 
2 | CC(c1cc(Cl)cc(Cl)c1)N(C(=O)c1cc(N)ns1)C1CC1 (stereo not shown) [I-979] |  | 3.19[a] | 
3 | COc1ccc(CNc2nsc(C(=O)Nc3ccc(Cl)cc3)c2Cl)cc1 [I-868] |  | 4.21[a] | 
4 | Nc1nsc(C(=O)NC2CCCCC2)c1Br [I-841] |  | 2.11[a] | 
5 | COc1ccc(CN(C)c2nsc(C(=O)N[C@@H](C)C3CCCCC3)c2Cl)cc1 [I-087] |  | 5.51[a] | 
6 | Nc1cc(C(=O)NCc2cccc(F)c2)sn1 [I-304] |  | 1.46[a] | 
7 | COc1ccc(CNc2nsc(C(=O)NCc3cnn(CC(C)C)c3C)c2Cl)cc1 [I-1262] |  | 3.21[a] | 
8 | Nc1nsc(C(=O)NCCc2ccccc2)c1Cl [I-851] |  | 1.98[a] | 
9 | O=C(NCc1ncc(C(F)(F)F)cc1Cl)c1snc(NC(=O)C2CC2)c1Cl [I-296] |  | 2.71[a] | 
10 | Nc1nsc(C(=O)NCC2(F)CCCCC2)c1Cl [I-615] |  | 2.17[a] | 
11 | Cc1ccc(NC(=O)c2snc(N(Cc3ccccc3)Cc3ccccc3)c2Br)cc1Cl [I-951] |  | 6.35[a] | 
12 | CCC(=O)Nc1nsc(C(=O)NCc2ccc(C#N)cc2)c1Cl [I-811] |  | 1.54[a] | 
13 | COc1ccc(CNc2nsc(C(=O)NCc3ccc(Cl)c(C(F)(F)F)c3)c2Cl)cc1 [I-1249] |  | 4.34[a] | 
14 | CS(C)(=O)=Nc1nsc(C(=O)NCC2CCCCC2)c1Cl [II-049] | 2.47^[a] |  | 
15 | Cc1c(N)nsc1C(=O)NCC1CCCC1O (single isomer, unassigned) [I-706] |  | 0.79[a] | 
16 | Cc1c(N)nsc1C(=O)NCc1ccc(C#N)cc1F [I-150] |  | 1.35[a] | 
17 | COc1ccc(CNc2nsc(C(=O)NC(C)C3=NOCC3)c2Cl)cc1 (stereo not shown) [I-1337] |  | 2.56[a] | 
18 | COc1ccc(CNc2nsc(C(=O)NC(C)c3cccnc3)c2Cl)cc1 (stereo not shown) [I-1253] |  | 1.63[a] | 
19 | COc1ccc(CNc2nsc(C(=O)NC3CC(C)CC(C)(C)C3)c2Cl)cc1 (stereo not shown) [I-1206] |  | 5.00[a] | 
20 | COc1ccc(CNc2nsc(C(=O)NCc3ccc(OC(F)F)cc3)c2Cl)cc1 [I-1229] |  | 3.63[a] | 
21 | CC1CCCC(C)(C)C1CN(C(=O)c1snc(N)c1Cl)C1CC1 (stereo not shown) [I-081] |  | 4.08[a] | 
22 | O=C(c1cc(N(Cc2ccccc2)Cc2ccccc2)ns1)N(Cc1ccc(Cl)cc1Cl)C1CC1 [I-940] |  | 6.30[a] | 
23 | O=C(NCc1ccc(F)cc1)c1cc(N(Cc2ccccc2)Cc2ccccc2)ns1 [I-309] |  | 4.36[a] | 
24 | COc1ccc(CNc2nsc(C(=O)N(Cc3c(F)cccc3Cl)C3CC3)c2Cl)cc1 [I-933] |  | 4.44[a] | 

Row | Compound | LogP [a] | LogP | LogP [b]
25 | Nc1nsc(C(=O)NCc2c(F)cc(F)cc2F)c1Cl [I-134] |  | 1.96[a] | 
26 | C#Cc1c(N)nsc1C(=O)NCC1CCCCC1F (stereo not shown) [I-1359] |  | 2.05[a] | 
27 | O=C(NCc1ccc(Cl)cc1)c1snc(NC2CC2)c1Cl [I-580] |  | 3.07[a] | 
28 | COc1ccc(CNc2nsc(C(=O)NC3CCCc4ccncc43)c2Cl)cc1 (stereo not shown) [I-1310] |  | 1.67[a] | 
29 | COc1ccc(CNc2nsc(C(=O)NC3CCOCC3)c2Cl)cc1 [I-1190] |  | 2.50[a] | 
30 | COc1ccc(CNc2nsc(C(=O)NC3CCCC(C)C3C)c2Cl)cc1 (stereo not shown) [I-1210] |  | 4.46[a] | 
31 | CCOC(=O)c1snc(NCc2ccc(OC)cc2)c1Cl [E-VII-069] | 3.87^[a] |  | 
32 | CCCS(CC)=Nc1nsc(C(=O)NCc2ccc(F)c(F)c2F)c1F (stereo not shown) [II-104] | 1.96^[a] |  | 
33 | CCOc1ccccc1CNC(=O)c1snc(NCc2ccc(OC)cc2)c1Cl [I-1247] |  | 4.08[a] | 
34 | O=C(O)c1snc(N(Cc2ccccc2)Cc2ccccc2)c1Cl [E-VIII-005] | 3.75^[a] |  | 
35 | CS(C)=Nc1nsc(C(=O)NCC2CCCCC2)c1Cl [II-032] | 1.82^[a] |  | 
36 | C[C@H](NC(=O)c1snc(N)c1Br)C1CCCCC1 [I-818] |  | 2.84[a] | 
37 | COC(=O)Nc1nsc(C(=O)N[C@@H](C)C2CCCCC2)c1Cl [I-108] |  | 2.84[a] | 
38 | CC1(CNC(=O)c2snc(N)c2Cl)CCCCC1 [I-086] |  | 2.84[a] | 
39 | CC(C)(C)C(=O)Nc1nscc1Cl [Z-A-004] | 1.55^[a] |  | 
40 | Cc1ccc(NC(=O)c2cc(N(Cc3ccccc3)Cc3ccccc3)ns2)cc1Cl [I-906] |  | 5.68[a] | 
41 | Nc1nsc(C(=O)NCC2CCC(F)(F)CC2)c1F [I-1297] |  | 1.66[a] | 
42 | CC(c1ccc(Cl)cc1Cl)N(C(=O)c1snc(N)c1Cl)C1CC1 (stereo not shown) [I-953] |  | 3.50[a] | 
43 | COc1ccc(CNc2nscc2Cl)cc1 [Z-A-005] | 3.00^[a] |  | 
44 | Nc1nsc(C(=O)NCc2ccnc(F)c2)c1Cl [I-038] |  | 1.04[a] | 
45 | CCOC(=O)c1snc(N)c1Br [E-VII-060] | 1.93^[a] |  | 
46 | CCOc1c(N)nsc1C(=O)NCc1ccccc1F [I-730] |  | 1.93[a] | 
47 | Nc1nsc(C(=O)NC2CCCCC2)c1C1CC1 [I-360] |  | 2.00[a] | 
48 | COc1c(N)nsc1C(=O)NCC1CCCC1 [I-736] |  | 1.87[a] | 

Row | Compound | LogP [a] | LogP | LogP [b]
49 | C[C@@H]1CCCC[C@H]1NC(=O)c1snc(N)c1F (relative stereo) [I-1357] |  | 2.21[a] | 
50 | CC(Cc1ccc(Cl)cc1)NC(=O)c1snc(N)c1Cl (stereo not shown) [II-027] | 2.68^[a] |  | 
51 | Nc1nsc(C(=O)NCC2CCCCC2F)c1Cl (stereo not shown) [I-1306] |  | 1.97[a] | 
52 | Nc1nsc(C(=O)NCc2ccccc2F)c1-c1ccc(F)cc1 [I-335] |  | 2.43[a] | 
53 | COc1ccc(CNc2nsc(C(=O)NCC3CCCCC3)c2Cl)cc1 [I-098] |  | 4.20[a] | 
54 | COc1ccc(CNc2nsc(C(=O)NCc3ccc(F)c(Oc4ccccc4)c3)c2Cl)cc1 [I-223] |  | 4.34[a] | 
55 | Nc1cc(C(=O)NCC2CCCC2O)sn1 (stereo not shown) [I-774] |  | 0.63[a] | 
56 | Nc1nsc(C(=O)NC2CCCCC2)c1-c1ccc(F)cc1 [I-334] |  | 2.66[a] | 
57 | CC(NC(=O)c1snc(N)c1Cl)C1CCCCC1 (stereo not shown) [I-1569] |  | 2.84[a] | 
58 | CC1CCCC(NC(=O)c2snc(N)c2Cl)C1 (stereo not shown) [I-1563] |  | 2.37[a] | 
59 | COc1ccc(CNc2nsc(C(=O)NCc3cnn(C)c3C)c2Cl)cc1 [I-1341] |  | 2.33[a] | 
60 | CC(C)(C)OC(=O)Nc1nsc(C(=O)NCC2CCCCC2Cl)c1Cl (stereo not shown) [I-1571] |  | 3.53[a] | 
61 | CC(C)(C)OC(=O)Nc1nsc(C(=O)NCC2CCCCC2Cl)c1F (stereo not shown) [I-1572] |  | 3.34[a] | 
62 | COc1ccc(CNc2nsc(C(=O)NC3CC(C(F)(F)F)CC(C(F)(F)F)C3)c2Cl)cc1 (stereo not shown) [I-1218] |  | 4.30[a] | 
63 | COc1ccc(CNc2nsc(C(=O)NC3CCC3)c2Cl)cc1 [I-1195] |  | 3.15[a] | 
64 | Nc1nsc(C(=O)N(Cc2ccc(F)cc2F)C2CC2)c1Cl [I-053] |  | 2.62[a] | 
65 | Nc1nsc(C(=O)NCC2(F)CCC2)c1Cl [I-827] |  | 1.50[a] | 
66 | COc1ccc(CN(C)c2nsc(C(=O)NCc3ccccc3F)c2Cl)cc1 [I-088] |  | 4.21[a] | 
67 | COc1ccc(CNc2nsc(C(=O)NCC3CCC(C(F)(F)F)CC3)c2Cl)cc1 (stereo not shown) [I-107] |  | 4.30[a] | 
68 | CC(=O)Nc1nsc(C(=O)NCc2ccc(Cl)cc2)c1Cl [I-570] |  | 2.03[a] | 
69 | O=C(NC1CCCC2CCCCC21)c1snc(NCc2ccccc2)c1NCc1ccccc1 (stereo not shown) [I-047] |  | 5.65[a] | 
70 | COc1ccc(CNc2nsc(C(=O)NCc3cccc4ccccc34)c2Cl)cc1 [I-1268] |  | 4.11[a] | 
71 | C[C@H](NC(=O)c1snc(N)c1-c1ccc(F)cc1)C1CCCCC1 [I-333] |  | 3.29[a] | 
72 | COc1ccc(CNc2nsc(C(=O)NC(C)Cc3ccc(Cl)cc3)c2Cl)cc1 (stereo not shown) [II-023] | 4.32^[a] |  | 

Row | Compound | LogP [a] | LogP | LogP [b]
73 | Nc1nsc(C(=O)N2CCc3cc(F)ccc3C2)c1Cl [II-019] | 2.09 |  | 2.05
74 | COc1ccc(CNc2nsc(C(=O)NCc3cnccc3OC)c2Cl)cc1 [I-1330] |  | 1.49[a] | 
75 | COC(=O)Nc1nsc(C(=O)NCc2ccc(Cl)cc2)c1Cl [I-579] |  | 2.29[a] | 
76 | COc1ccc(CNc2nsc(C(=O)N(Cc3ccccc3C(C)C)C3CC3)c2Cl)cc1 [I-871] |  | 4.71[a] | 
77 | COc1ccc(CNc2nsc(C(=O)NC3CCCCC3(C)C)c2Cl)cc1 (stereo not shown) [I-075] |  | 4.64[a] | 
78 | O=C(NCc1c(F)cc(F)cc1F)c1snc(N=S2CCCC2)c1Cl [II-044] | 1.66^[a] |  | 
79 | COc1ccc(CNc2nsc(C(=O)NC3CCc4ccc(C(C)(C)C)cc4C3)c2Cl)cc1 (stereo not shown) [I-1308] |  | 5.41[a] | 
80 | Nc1nsc(C(=O)N(Cc2ccc(Cl)cc2Cl)C2CC2)c1Cl [I-209] |  | 3.37[a] | 
81 | COc1ccc(CNc2nsc(C(=O)NCc3cc(C(F)(F)F)ccc3Cl)c2Cl)cc1 [I-1246] |  | 4.37[a] | 
82 | O=C(NCc1cc(Cl)cc(Cl)c1)c1cc(N(Cc2ccccc2)Cc2ccccc2)ns1 [I-312] |  | 2.90[a] | 
83 | O=C(NCc1ccc(Cl)cc1)c1cc(N(Cc2ccccc2)Cc2ccccc2)ns1 [I-314] |  | 4.85[a] | 
84 | COc1ccc(CNc2nsc(C(=O)NCc3cccc(OC(F)(F)F)c3)c2Cl)cc1 [I-1233] |  | 4.13[a] | 
85 | O=C(NCc1ncc(C(F)(F)F)cc1Cl)c1snc(N(Cc2ccccc2)Cc2ccccc2)c1Br [I-200] |  | 6.06[a] | 
86 | COc1ccc(CNc2nsc(C(=O)NC3CCCCC3c3ccccc3)c2Cl)cc1 (stereo not shown) [I-267] |  | 4.69[a] | 
87 | CCn1cc(CNC(=O)c2snc(NCc3ccc(OC)cc3)c2Cl)c(C(F)F)n1 [I-1198] |  | 3.09[a] | 
88 | COc1ccc(CNC(=O)c2cc(N)ns2)cn1 [I-099] |  | 0.86[a] | 
89 | O=C(c1cc(N(Cc2ccccc2)Cc2ccccc2)ns1)N(Cc1cc(Cl)ccc1F)C1CC1 [I-992] |  | 5.59[a] | 
90 | Nc1nsc(C(=O)NCC2CCCCCC2)c1Cl [I-054] |  | 2.86[a] | 
91 | C[C@H]1CCCC[C@H]1CNC(=O)c1snc(N)c1I (relative stereo) [I-1540] |  | 2.73[a] | 
92 | Cc1c(N)nsc1C(=O)NCc1ccc(F)c(F)c1F [I-597] |  | 1.68[a] | 
93 | COc1ccc(CN(C(=O)OC(C)(C)C)c2nsc(C(=O)N(C)OC)c2Cl)cc1 [I-1286] |  | 3.75[a] | 
94 | O=C(c1cc(N(Cc2ccccc2)Cc2ccccc2)ns1)N(Cc1c(Cl)cccc1Cl)C1CC1 [I-939] |  | 5.90[a] | 
95 | COc1ccc(CNc2nsc(C(=O)NC(C)c3ccncc3)c2Cl)cc1 (stereo not shown) [I-1189] |  | 1.54[a] | 
96 | COc1ccc(CNc2nsc(C(=O)NCCC3=CCCCC3)c2Cl)cc1 [I-1266] |  | 4.44[a] | 
